Test results from patent US20110182943A1, “METHODS OF IMMUNE OR HEMATOLOGICAL ENHANCEMENT, INHIBITING TUMOUR FORMATION OR GROWTH, AND TREATING OR PREVENTING CANCER, CANCER SYMPTOMS, OR THE SYMPTOMS OF CANCER TREATMENTS” (FONTERRA CO-OPERATIVE GROUP LIMITED, priority 2007, published 2011).

Tests used:
4T1 tumour cells = assay: 4T1 breast cancer primary tumour growth; format: in vivo, Balb/c mice
Method: Tumours were established by s.c. injection of 2×10^5 EL-4 or 2×10^4 4T1 cells into the left flank of mice, and tumour growth determined by measuring two perpendicular diameters. Animals were euthanased when tumours reached more than 1.0 cm in diameter, in accord with Animal Ethics Approval (University of Auckland). All experiments included 5 or 6 mice per treatment group, unless otherwise indicated. Paclitaxel (30 mg dissolved in 5 ml of Cremophor® EL and dehydrated alcohol) was diluted in 0.9% NaCl and administered i.p. at 30 mg/Kg.
Groups of 6 Balb/c mice were fed the base AIN-93 diet, or the same diet substituted with 5% milk fat, representing ˜71% of the fat component of the diet. Mice were challenged subcutaneously with 2×10^4 4T1 tumour cells two weeks after being placed on the diets. The mice were monitored for tumour growth, and tumour size was measured every three days.

[1] = day 4; 300 mg/Kg i.p.; irrespective of the diet fed
Method: Cyclophosphamide, diluted in PBS, was administered i.p. at 300 mg/Kg.
(§1) Groups of six C57BL/6 mice were fed an AIN93G diet or the same diet substituted with either 5%, 25% or 70% milk fat, and after 4 weeks of feeding were injected intraperitoneally with cyclophosphamide (300 mg/Kg of body weight) at day 0. The mice were killed 4, 8, and 12 days later, and tissues analyzed for the side-effects of drug treatment, as described below.

[2] = single injection 300 mg/Kg i.p.; control diet
Method: as §1

[3] = system: 4T1 breast cancer tumours; assay: 4T1 lung surface metastases; format: in vivo, Balb/c mice; details: day 35
Text: Suppression of lung metastases: The 4T1 breast cancer cell line is highly metastatic and disseminates to the lung and liver. The lungs of the mice in Example 8 (day 35) were inspected for tumours and micrometastases. The mean numbers of tumours on the lung surface of untreated mice fed the control diet, paclitaxel-treated mice fed the control diet, untreated mice fed milk fat, and paclitaxel-treated mice fed milk fat were 32, 18, 22, and 10, respectively (FIG. 6).

[4] = system: 4T1 breast cancer tumours; assay: 4T1 liver metastases; format: in vivo, Balb/c mice; details: day 35
Text: Suppression of liver metastases: Similarly, the livers of the above mice were inspected for tumours and micrometastases. The livers were removed, section, and stained with hematoxylin/eosin, and the numbers of metastatic nodules inside the livers were counted.

4T1 primary tumours = assay: 4T1 tumour angiogenesis (anti-CD31 staining); format: in vivo, Balb/c mice; details: day 35
Method: To determine tumour vascularity, 10-μm frozen tumour sections were fixed with acetone, rinsed with PBS, blocked with 2% BSA for 2 hr, and incubated overnight with the anti-CD31 antibody MEC13.3, or an anti-CD105 mAb. They were subsequently incubated for 30 min with secondary antibodies using the VECTASTAIN Universal Quick kit (Vector Laboratories, Burlingame, Calif., USA); and developed with Sigma FAST DAB (3,3′-diaminobenzidine tetrahydrochloride) and CoCl2 enhancer tablets (Sigma), and counterstained with hematoxylin. Stained blood vessels were counted in five or six blindly chosen random fields (0.155 mm^2) at ×40 magnification, and the mean of the highest three counts was calculated. […]
The above 4T1 primary tumours (Example 8; day 35) of untreated mice fed the control diet, paclitaxel-treated mice fed the control diet, untreated mice fed milk fat, and paclitaxel-treated mice fed milk fat were excised, sectioned, and stained with an anti-CD31 antibody to identify vascular endothelial cells so as to measure tumour angiogenesis. Blood vessels stained with the anti-CD31 mAb were counted in blindly chosen random fields to record mean vessel density (8A), or the median distance to the nearest CD31 mAb-labeled blood vessel from an array point (8B).

[5] = Blood cell counts in 4T1 tumour-bearing mice; format: in vivo, Balb/c mice
[6] = Paclitaxel-induced apoptosis in jejunal crypts (TUNEL); format: in vivo, Balb/c mice; details: paclitaxel 30 mg/kg i.p.
Method: Tumours were excised and immediately frozen in dry ice, and stored at −70° C. for later in situ detection of apoptotic cells in tumours. Frozen serial sections of 6-μm thickness were fixed with paraformaldehyde solution (4% in PBS, pH 7.4), and permeabilized with a solution containing 0.1% Triton X-100 and 0.1% sodium citrate. They were incubated with 20 μl TUNEL reagent (In Situ apoptosis detection kit from Boehringer Mannheim, Germany) for 60 min at 37° C., and examined by fluorescence microscopy. Adjacent sections were counter-stained with haematoxylin to count the total number of cells, or the number of apoptotic cells in ten randomly selected fields (magnification of ×40). The apototic index (AI) was calculated as the number of apoptotic cells×100/total number of nucleated cells. For detection of apoptotic cells in vitro, the numbers of apoptotic and necrotic tumour cells were measured by staining with annexin-V-fluos, TUNEL, and trypan blue. For measurement of gut apoptosis, jejunal sections were stained by the TUNEL method using a DeadEnd™ Fluorometric TUNEL System (Promega, Madison, Wis., USA). Apoptotic cells in 10 randomly selected cypts were counted, and the data expressed as apoptotic bodies per crypt.

[7] = paclitaxel 30 mg/kg i.p.
Method: The jejuni from mice were fixed in 4% paraformaldehyde, embedded in paraffin, sectioned at 4 μm, and sections stained with hematoxylin-eosin. In each specimen, 20 well preserved villi were randomly selected and their lengths were measured by microscopy using an objective micrometer.
To determine whether milk fat protected the gut against paclitaxel-induced damage, groups of 6 Balb/c mice were fed the base AIN-93 diet, or the same diet substituted with 5% milk fat, representing ˜71% of the fat component of the diet. Two weeks later each mouse received an intraperitoneal injection of paclitaxel (30 mg/kg body weight). One week later they were killed and the jejunum was removed. Paraffin-embedded sections of the jejunum of mice treated with control diet, milk fat diet, control diet plus paclitaxel, and milk fat diet plus paclitaxel were stained with hematoxylin and eosin.

[8] = system: jejunal γ-glutamyl transpeptidase (γ-GGT); details: paclitaxel 30 mg/kg i.p.
Method: The activity of jejunal γ-glutamyl transpeptidase (γ-GGT) was recorded as a separate measure of gut damage, as described previously Ziotnik et al., 2005). A segment of the jejunum (approximately 5 cm) was excised and flushed with 10 ml of PBS, and cut into two 2 cm^2 segments which were placed into 1.0 ml of 1.0% Triton X-100, 0.15 M NaCl, 100 mM Tris, pH 8.0 (Tris buffer). Twenty microlitres of a solution containing 0.3 ml of 100 mM glycyl-glycine, pH 8.0, 0.08 ml Tris buffer, 0.5 ml of 5 mM γ-glutamyl-p-nitroanilide was added to final volume of 0.9 ml. The gut slices were incubated for 10 min in a shaking water bath at 37° C., and γ-GGT activity read at 405 nm. Results were expressed as units of γ-GGT activity per cm of jejunum, where one unit is defined as the γ-GGT activity that releases 1.0 mol of p-nitroaniline in 1 h.
To determine whether milk fat protected the gut against paclitaxel-induced damage, groups of 6 Balb/c mice were fed the base AIN-93 diet, or the same diet substituted with 5% milk fat, representing ˜71% of the fat component of the diet. Two weeks later each mouse received an intraperitoneal injection of paclitaxel (30 mg/kg body weight). One week later they were killed and the jejunum was removed.

[9] = Body, tumour, organ and tissue weights (cachexia) in 4T1 tumour-bearing mice
Method: Tumours were established by s.c. injection of 2×10^5 EL-4 or 2×10^4 4T1 cells into the left flank of mice, and tumour growth determined by measuring two perpendicular diameters. […] All experiments included 5 or 6 mice per treatment group, unless otherwise indicated. Paclitaxel (30 mg dissolved in 5 ml of Cremophor® EL and dehydrated alcohol) was diluted in 0.9% NaCl and administered i.p. at 30 mg/Kg. In the case of the 4T1 metastatic model of breast cancer, after the mice were euthanased at the end of experiments, the organs including lung, liver and spleen were removed and weighed.
The mice were weighed at the start and end of the experiment. After the mice were euthanased, the tumours were excised and weighed. To determine the extent of adipose tissue and muscle wasting, epididymal adipose tissue and the left gastrocnemius muscle were dissected and weighed. The carcass weight was calculated as the difference in weight between the whole body and the tumour.

EL-4 tumour cells = assay: EL-4 lymphoma tumour growth in mice fed experimental diets; format: in vivo, C57BL/6 mice
Text: Mice were challenged subcutaneously with 2×10^5 EL-4 tumour cells two weeks after being placed on the diets. Tumour size as measured by two perpendicular diameters (in centimetres) was monitored until day 91, or until tumours reached 1 cm in diameter. Each point represents the mean tumour size with 95% confidence intervals for either 6 mice, or the number of mice indicated.
Groups of six mice were fed a control AIN-93G diet, diets containing either 28 g Lf+ or 120 g of milk fat (AMF) per 2.4 Kg of diet, or a diet containing a combination of both Lf and milk fat. Day 0 refers to the day the mice were placed on their diets. After 2 weeks on the diets, 2×10^5 EL-4 cells were injected into the flanks of mice. Tumour size as measured by two perpendicular diameters (in centimetres) was monitored until day 56. Each point represents the mean tumour size with 95% confidence intervals for either 6 mice, or the number of mice indicated.
Mice were challenged subcutaneously with EL-4 tumour cells two weeks after being placed on the diets. Tumour size was again measured by two perpendicular diameters (in centimetres).

[10] = paclitaxel chemotherapy, control diet
[11] = tumour-bearing mice, mean ± SEM, n = 6

Molecule: CCCCCC/C=C/C=C\CCCCCCCC(=O)O (single isomer, unassigned) [c-9, t-11 CLA isomer]
- synergy with Lf+ (4T1 tumour cells; 5 g per 2.4 Kg of diet): no synergy
- effect on growth of 4T1 tumours (4T1 tumour cells; 5 g per 2.4 Kg of diet, 3% of the fat component): only wealdy inhibited

Molecule: O=P1(N(CCCl)CCCl)NCCCO1 (centres unmarked) [cyclophosphamide]
- reduction of peripheral WBC count [1]: more than 90%
- reduction in average length of the villi compared with healthy control mice [2]: 65%

Molecule: CC(=O)O[C@H]1C(=O)[C@@]2(C)[C@H]([C@H](OC(=O)c3ccccc3)[C@]3(O)C[C@H](OC(=O)[C@H](O)[C@@H](NC(=O)c4ccccc4)c4ccccc4)C(C)=C1C3(C)C)[C@]1(OC(C)=O)CO[C@@H]1C[C@@H]2O [paclitaxel]
- reduction in tumour size compared with untreated mice fed the control diet (4T1 tumour cells; day 35, 5% milk fat diet, paclitaxel 30 mg/kg i.p. at ~0.5 cm): 31%
- mean number of tumours on the lung surface [3]: 18
- reduction in numbers of tumours on the lung surface compared with untreated mice fed the control diet [3]: 44%
- mean number of liver metastases [4]: 59
- reduction in numbers of tumours in the liver compared with untreated mice fed the control diet [4]: 45%
- increase in median distance to the nearest CD31+ vessels compared with untreated mice fed the control diet (4T1 primary tumours): 71%
- reduction in microvessel density (CD31+ vessels) compared with untreated mice fed the control diet (4T1 primary tumours): 37%
- reduction in RBC count compared to tumour-bearing mice fed the control diet [5, 10]: 49%
- reduction in WBC count compared to tumour-bearing mice fed the control diet [5, 10]: 44%
- RBC [5, 11]: 3.21 ± 0.74^3 ×10^6/μl
- WBC [5, 11]: 2.37 ± 0.39^3 ×10^3/μl
- increase in apoptotic body count per crypt compared with untreated mice [6]: 6 fold
- appearance of jejunal villi in sections ([7]; hematoxylin and eosin): broken and flattened villi
- reduction in average length of the villi compared with control mice ([7]; jejunum one week later): 61%
- reduction in jejunal γ-GGT activity compared to untreated control mice [8]: 56%
- reduction in lung weight compared to untreated mice fed the control diet ([9]; day 35, tumour-bearing mice): 30%
- reduction in spleen weights compared to tumour-bearing mice fed the control diet [9, 10]: 8.5%
- Body weight [9, 11]: 17.7 ± 1.5 g
- Carcass body weight [9, 11]: 17.6 ± 1.4 g
- Epididymal adipose tissue [9, 11]: 24.3 ± 6.7 mg
- Gastrocnemius muscle [9, 11]: 101.2 ± 9.3 mg
- Liver [9, 11]: 1210.1 ± 72.4 mg
- Lung [9, 11]: 274.5 ± 30.6^3 mg
- Spleen [9, 11]: 72.35 ± 8.2^3 mg
- Tumor [9, 11]: 103.4 ± 24.1^3 mg

Molecule: sphingomyelin
- delay of tumour growth in two mice (EL-4 tumour cells; 1.2 g per 2.4 Kg of diet): ~1 week
- delay of tumour growth in two other mice (EL-4 tumour cells; 1.2 g per 2.4 Kg of diet): ~2 weeks
- effect on tumour growth / tumorigenesis in individual mice (EL-4 tumour cells; groups of five mice, per 2.4 Kg of diet: 28 g Lf+, 120 g Phospholac 600, 1.2 g sphingomyelin): no appreciable affect on tumour growth of the remaining mouse
